Results taken from PubChem BioAssay AID1963840 (Molecular Pharmacology Branch, DTP, NCI, 2024).

System: 695427-040-R-J1-PDC complex spheroid viability
Test: Anticancer human tumor 695427-040-R-J1-PDC patient-derived colon adenocarcinoma cell line growth inhibition [POLQ]
Details: for IC50: curve of first compound; for viability, T/C: stronger effect = lower value; active = viability on the fitted dose curve at most 10% of control; inactive = the rest
Procedure: Multicellular complex tumor spheroid response to Polymerase (POL) inhibitors (novobiocin, ART-558, RP6685) in combination with a variety of drugs and investigational agents in selected tumor cell lines
The POL inhibitors (novobiocin, ART-558, and RP6685) were evaluated both individually and in combination with standard of care and investigational anticancer small molecules within a complex spheroid model of solid tumors. . Complex spheroids include a stromal component modeled by human endothelial cells (HUVEC) and fibroblasts modeled by human mesenchymal stem cells (MSCs). The concentration ranges selected for each drug and investigational agent were based upon clinically achievable concentrations if the clinical Cmax of the agent was known.
Compounds. The drugs and investigational agents: novobiocin (NSC847541), ART-558 (NSC835418), RP-6685 (NSC848927), peposertib (NSC802822), ceralasertib (NSC780249), elimusertib (NSC800525), camonsertib (NSC841442), AZD-1390 (NSC803789), olaparib (NSC753686), talazoparib (NSC767125), rucaparib (NSC756644), sotorasib (NSC818433), MRTX-1133 (NSC836407), SN-38 (NSC673596), topotecan (NSC609699), epotoside (NSC141540), doxorubicin (NSC123127), gemcitabine (NSC613327), 5-fluorouracil (NSC19893), paclitaxel (NSC125973), vemurafenib (NSC761431), MSA-2 (NSC828583), SN-011 (NSC837082), adavosertib (NSC754352), prexasertib (NSC758257), carboplatin (NSC241240) and oxaliplatin (NSC266046), were obtained from the National Cancer Institute (NCI) Developmental Therapeutics Program Chemical Repository (21). The FDA-approved anticancer drug set is available from the Developmental Therapeutics Program at https://dtp.cancer.gov/organization/dscb/obtaining/. […] The stock solutions were prepared in dimethyl sulfoxide (DMSO, Sigma-Aldrich, St. Louis, MO, cat. D2650), except for the platinum compounds which were prepared in saline (Quality Biological, Gaithersburg, MD, cat. 114-055-101), at 800-fold the tested concentration and stored at -70 degrees C prior to their use. All drugs and investigational agents were tested over a range starting from a high concentration at or near the clinical Cmax and decreasing in half-log increments. If the clinical Cmax for an agent had not been determined, the highest concentration tested was 10 microM, except for SN-38, which was tested at a high concentration of 1 microM.
Cell Culture. All cells were maintained in an incubator at 37 degrees C and 5% CO2 with 95% humidity. The PDC lines were cultured according to standard operating procedures established by the NCI PDMR (https://pdmr.cancer.gov). Table 3 of the manuscript, lists the cell lines along with the number of the three cell types plated to form the mct-spheroids and media for tumor cell growth. After thawing, all PDC lines, except 997537-175-T-J1-PDC and 415267-285-R-J2-PDC, were cultured in Matrigel-coated flasks prepared with a working solution of 1X Ham's F-12 nutrient mix, without supplementation (Thermo Fisher Scientific, cat. 11765054), 100 U/mL penicillin-streptomycin (Thermo Fisher Scientific, cat. 15140122), and 2.5% Matrigel (Corning Inc., Corning, NY, cat. 354248) for the first three passages. The two PDC lines 997537-175-T-J1-PDC and 415267-285-R-J2-PDC were cultured on uncoated flasks. The 857933-349-R-J2-PDC line was cultured in 6C/Colon 1B media containing advanced DMEM/F-12 (Thermo Fisher Scientific, cat. 12634028), 10 mM HEPES (Thermo Fisher Scientific, cat. 15630080), 1X GlutaMAX supplement (Thermo Fisher Scientific, cat. 35050061), 0.1 mg/mL primocin (InvivoGen, San Diego, CA, cat. ant-pm-2), 10% defined fetal bovine serum, heat inactivated (HyClone Laboratories Inc., Logan, UT, cat. SH30070.03HI), 50% L-WRN conditioned media (ATCC, cat. CRL-3276), 1.25 mM N-Acetyl-L-cysteine (Sigma-Aldrich, cat. A9165), 10 mM nicotinamide (Sigma-Aldrich, cat. N0636), 1X B-27 supplement (Thermo Fisher Scientific, cat. 17504044), 1X N-2 supplement (Thermo Fisher Scientific, cat. […]

[1] = second compound 0.0316 µM, first compound 0.0316 µM
[2] = second compound 0.0316 µM, first compound 0.1 µM
[3] = second compound 0.0316 µM, first compound 0.316 µM
[4] = second compound 0.0316 µM, first compound 1 µM
[5] = second compound 0.0316 µM, first compound 3.16 µM
[6] = second compound 0.0316 µM, first compound 10 µM
[7] = second compound 0.1 µM, first compound 0.0316 µM
[8] = second compound 0.1 µM, first compound 0.1 µM
[9] = second compound 0.1 µM, first compound 0.316 µM
[10] = second compound 0.1 µM, first compound 1 µM
[11] = second compound 0.1 µM, first compound 3.16 µM
[12] = second compound 0.1 µM, first compound 10 µM
[13] = second compound 0.316 µM, first compound 0.0316 µM
[14] = second compound 0.316 µM, first compound 0.1 µM
[15] = second compound 0.316 µM, first compound 0.316 µM
[16] = second compound 0.316 µM, first compound 1 µM
[17] = second compound 0.316 µM, first compound 3.16 µM
[18] = second compound 0.316 µM, first compound 10 µM
[19] = second compound 1 µM, first compound 0.0316 µM
[20] = second compound 1 µM, first compound 0.1 µM
[21] = second compound 1 µM, first compound 0.316 µM
[22] = second compound 1 µM, first compound 1 µM
[23] = second compound 1 µM, first compound 3.16 µM
[24] = second compound 1 µM, first compound 10 µM
[25] = second compound 3.16 µM, first compound 0.0316 µM
[26] = second compound 3.16 µM, first compound 0.1 µM
[27] = second compound 3.16 µM, first compound 0.316 µM
[28] = second compound 3.16 µM, first compound 1 µM
[29] = second compound 3.16 µM, first compound 3.16 µM
[30] = second compound 3.16 µM, first compound 10 µM
[31] = second compound 10 µM, first compound 0.0316 µM
[32] = second compound 10 µM, first compound 0.1 µM
[33] = second compound 10 µM, first compound 0.316 µM
[34] = second compound 10 µM, first compound 1 µM
[35] = second compound 10 µM, first compound 3.16 µM
[36] = second compound 10 µM, first compound 10 µM
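Also: spheroids exposed to compounds for seven days.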

COc1cc(C2c3cc4c(cc3C(OC3OC5COC(C)OC5C(O)C3O)C3COC(=O)C23)OCO4)cc(OC)c1O (centres undefined) + COC1C(OC(N)=O)C(O)C(Oc2ccc3c(O)c(NC(=O)c4ccc(O)c(CC=C(C)C)c4)c(=O)oc3c2C)OC1(C)C
> 10 µM: IC50 (second compound 0.0316 µM) | IC50 (second compound 0.1 µM) | IC50 (second compound 0.316 µM) | IC50 (second compound 1 µM) | IC50 (second compound 3.16 µM) | IC50 (second compound 10 µM)
inactive: viability, T/C [1] 96.7% | viability, T/C [2] 92.3% | viability, T/C [3] 98.8% | viability, T/C [4] 96.2% | viability, T/C [5] 98.4% | viability, T/C [6] 82.4% | viability, T/C [7] 101% | viability, T/C [8] 93.4% | viability, T/C [9] 101% | viability, T/C [10] 93.8% | viability, T/C [11] 99.5% | viability, T/C [12] 83.6% | viability, T/C [13] 104% | viability, T/C [14] 92.3% | viability, T/C [15] 94.7% | viability, T/C [16] 97% | viability, T/C [17] 95.3% | viability, T/C [18] 80.6% | viability, T/C [19] 107% | viability, T/C [20] 98.5% | viability, T/C [21] 112% | viability, T/C [22] 100% | viability, T/C [23] 96.4% | viability, T/C [24] 83.7% | viability, T/C [25] 99.4% | viability, T/C [26] 98.3% | viability, T/C [27] 101% | viability, T/C [28] 101% | viability, T/C [29] 98.9% | viability, T/C [30] 82.8% | viability, T/C [31] 94.5% | viability, T/C [32] 95.2% | viability, T/C [33] 95.3% | viability, T/C [34] 99.9% | viability, T/C [35] 103% | viability, T/C [36] 83.2%

COc1cccc2c1C(=O)c1c(O)c3c(c(O)c1C2=O)CC(O)(C(=O)CO)CC3OC1CC(N)C(O)C(C)O1 (centres undefined) + COC1C(OC(N)=O)C(O)C(Oc2ccc3c(O)c(NC(=O)c4ccc(O)c(CC=C(C)C)c4)c(=O)oc3c2C)OC1(C)C
> 10 µM: IC50 (second compound 0.0316 µM) | IC50 (second compound 0.1 µM) | IC50 (second compound 0.316 µM) | IC50 (second compound 1 µM) | IC50 (second compound 3.16 µM) | IC50 (second compound 10 µM)
inactive: viability, T/C [1] 98.1% | viability, T/C [2] 96.5% | viability, T/C [3] 98% | viability, T/C [4] 74% | viability, T/C [5] 68.2% | viability, T/C [6] 54.5% | viability, T/C [7] 106% | viability, T/C [8] 95.2% | viability, T/C [9] 95.1% | viability, T/C [10] 74.4% | viability, T/C [11] 64% | viability, T/C [12] 51.5% | viability, T/C [13] 102% | viability, T/C [14] 91.6% | viability, T/C [15] 84% | viability, T/C [16] 79% | viability, T/C [17] 65.9% | viability, T/C [18] 48.6% | viability, T/C [19] 98.4% | viability, T/C [20] 95.1% | viability, T/C [21] 92.1% | viability, T/C [22] 81.1% | viability, T/C [23] 68.3% | viability, T/C [24] 50.3% | viability, T/C [25] 99.4% | viability, T/C [26] 98% | viability, T/C [27] 88.9% | viability, T/C [28] 75.7% | viability, T/C [29] 70.1% | viability, T/C [30] 54.5% | viability, T/C [31] 103% | viability, T/C [32] 90.5% | viability, T/C [33] 105% | viability, T/C [34] 87.3% | viability, T/C [35] 67.5% | viability, T/C [36] 55.8%
